The target in experiment [1] is T1, full-length recombinant rat vitamin D receptor (Rattus norvegicus, UniProt P13053).
T1 construct: Full-length recombinant rat receptor was expressed in E. coli BL21 (DE3) Codon Plus RIL cells; histidine tag (C); made in house; host or cells: E. coli BL21 (DE3) Codon Plus RIL
T1 sequence (P13053 1-423): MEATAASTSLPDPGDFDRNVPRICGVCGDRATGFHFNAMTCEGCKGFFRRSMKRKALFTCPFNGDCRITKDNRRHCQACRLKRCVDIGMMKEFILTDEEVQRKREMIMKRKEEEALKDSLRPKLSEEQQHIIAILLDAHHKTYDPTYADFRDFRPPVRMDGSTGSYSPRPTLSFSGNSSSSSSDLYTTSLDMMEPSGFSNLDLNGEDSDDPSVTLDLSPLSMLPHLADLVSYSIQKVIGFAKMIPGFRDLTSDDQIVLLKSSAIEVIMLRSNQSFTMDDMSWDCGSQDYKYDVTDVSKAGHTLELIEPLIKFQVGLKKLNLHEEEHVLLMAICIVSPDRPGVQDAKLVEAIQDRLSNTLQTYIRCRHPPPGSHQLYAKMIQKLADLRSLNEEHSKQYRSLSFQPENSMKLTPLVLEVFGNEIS
Put plainly: Vitamin D receptor binding, competition with [3H]-1,25(OH)2D3. The note with it: full-length recombinant rat VDR; 1 nM radioligand. From the text: Vitamin D Receptor Binding
Full-length recombinant rat receptor was expressed in E. coli BL21 (DE3) Codon Plus RIL cells and purified to homogeneity using two different column chromatography systems. The first system was a nickel affinity resin that utilizes the C-terminal histidine tag on this protein. The protein that was eluted from this resin was further purified using ion exchange chromatography (S-Sepharose Fast Flow). Aliquots of the purified protein were quick frozen in liquid nitrogen and stored at −80° C. until use. For use in binding assays, the protein was diluted in TEDK50 (50 mM Tris, 1.5 mM EDTA, pH7.4, 5 mM DTT, 150 mM KCl) with 0.1% Chaps detergent. The receptor protein and ligand concentration were optimized such that no more than 20% of the added radiolabeled ligand was bound to the receptor.
Radiolabeled and unlabeled ligands were added to 100 mcl of the diluted protein at a final ethanol concentration of ≦10%, mixed and incubated overnight on ice to reach binding equilibrium. The following day, 100 mcl of hydroxylapatite slurry (50%) was added to each tube and mixed at 10-minute intervals for 30 minutes. The hydroxylapaptite was collected by centrifugation and then washed three times with Tris-EDTA buffer (50 mM Tris, 1.5 mM EDTA, pH 7.4) containing 0.5% Titron X-100. […] Total binding was determined from the tubes containing only radiolabeled ligand.

For experiment [2], the system named is Human promyelocytic leukemia (HL60) cells. Put plainly: HL-60 differentiation (nitro blue tetrazolium reduction). The experiment is classed as cell-based. The note with it: four days after treatment. The protocol: The study drugs were dissolved in ethanol and the concentrations determined using UV spectrophotometry. Serial dilutions were prepared so that a range of drug concentrations could be tested without changing the final concentration of ethanol (≦0.2%) present in the cell cultures.
Human promyelocytic leukemia (HL60) cells were grown in RPMI-1640 medium containing 10% fetal bovine serum. The cells were incubated at 37° C. in the presence of 5% CO2.
HL60 cells were plated at 1.2×10^5 cells/ml. Eighteen hours after plating, cells in duplicate were treated with drug. Four days later, the cells were harvested and a nitro blue tetrazolium reduction assay was performed (Collins et al., 1979; J. Exp. Med. 149:969-974). The percentage of differentiated cells was determined by counting a total of 200 cells and recording the number that contained intracellular black-blue formazan deposits. Verification of differentiation to monocytic cells was determined by measuring phagocytic activity (data not shown).

In experiment [3] the test system is 24-hydroxylase (24Ohase) gene promoter in ROS 17/2.8 (bone) cells. Put plainly: In vitro transcription assay (24-hydroxylase promoter luciferase reporter). The experiment is classed as cell-based. The note with it: ROS 17/2.8 cells, 24Ohase-luciferase, sixteen hours after dosing; read-out: EC50, transcriptional activity in bone cells. The protocol:
In Vitro Transcription Assay
Transcription activity was measured in ROS 17/2.8 (bone) cells that were stably transfected with a 24-hydroxylase (24Ohase) gene promoter upstream of a luciferase reporter gene (Arbour et al., 1998). Cells were given a range of doses. Sixteen hours after dosing the cells were harvested and luciferase activities were measured using a luminometer. • RLU=relative luciferase units. Intestinal Calcium Transport and Bone Calcium Mobilization
In general terms: In a reporter assay the amount or activity of a reporter protein is the signal.

Experiment [4] can be described thus: Bone calcium mobilization (serum calcium) in vitamin D-deficient rats. The experiment is classed as in vivo, Sprague-Dawley rats. The protocol: Male, weanling Sprague-Dawley rats were placed on Diet 11 (0.47% Ca) diet+AEK for one week followed by Diet 11 (0.02% Ca)+AEK for 3 weeks. The rats were then switched to a diet containing 0.47% Ca for one week followed by two weeks on a diet containing 0.02% Ca. Dose administration began during the last week on 0.02% calcium diet. Four consecutive ip doses were given approximately 24 hours apart. Twenty-four hours after the last dose, blood was collected from the severed neck and the concentration of serum calcium determined as a measure of bone calcium mobilization. The first 10 cm of the intestine was also collected for intestinal calcium transport analysis using the everted gut sac method.
Calcium mobilization from bone in vitamin D-deficient animals.

The mark [5] stands for this setting: low calcium diet (0.02%), four consecutive ip doses, overall / all dosages.

One may read the Ki as a dissociation constant, usually derived from enzyme kinetics or from competition with a known ligand. A word on the EC50: it is the concentration at which the effect is half-maximal. With `CCCCC(C)C1CCC2C(=CC=C3CC(O)C(C)C(O)C3)CCCC21C` (single isomer, unassigned) [C-19], the Ki in experiment [1] was found to be 0.00022 µM. Besides, the EC50 turned out to be 0.0082 µM in experiment [2] and 0.01 µM in experiment [3]. For the same compound, the “calcium mobilization from bone (serum calcium)” value is “did not result in mobilization of bone calcium” in experiment [4] (0.02% Ca diet, 780 pmol/day for 4 consecutive days); “without any substantial effect” in experiment [4] (0.02% Ca diet, 2340 pmol/day); “without any substantial effect” in experiment [4] (0.02% Ca diet, 7020 pmol/day); “little, if any, activity in mobilizing calcium from bone” in experiment [4] (setting [5]).

For the compound `CCCCC(C)C1CCC2C(=CC=C3CC(O)C(C)C(O)C3)CCCC21C` (single isomer, unassigned) [N-16], the Ki in experiment [1] was found to be 0.01 µM. The EC50 in experiment [2] and in experiment [3] was 0.1 µM throughout.

Take `C=C1/C(=C\C=C2/CCC[C@]3(C)[C@@H]([C@H](C)CCCC(C)(C)O)CC[C@@H]23)C[C@@H](O)C[C@@H]1O` [1,25(OH)2D3, 1α,25-dihydroxyvitamin D3, reference compound]: the EC50 in experiment [2] was 0.0029 µM. The “calcium mobilization from bone (serum calcium)” value in experiment [4] (setting [5]) is recorded as “increased serum calcium levels at all dosages”.

These data come from patent publication US8614202B2, “2α-methyl and 2β-methyl analogs of 19,26,27-trinor-(20S)-1α-hydroxyvitamin D3 and their uses” (Wisconsin Alumni Research Foundation, priority 2004, dated 2013).
